Experimental data from ChEMBL document CHEMBL1201862, “PubChem BioAssay data set” (2004).
The source made the active and inactive calls.

Assays:
[1] = Cytotoxicity screening for potential Inhibitors of Bacterial Capsule Biogenesis. [Related pubchem assays (depositor defined):AID488970]; type: functional
HeLa = assay: HeLa cell cytotoxicity, dose response, cytotoxicity control for MITF activator project, CellTiter-Glo luminescence, cherry-pick samples (AID 540259); type: functional, cell-based; details: Homo sapiens
cells [2] = type: functional, cell-based
cells [3] = type: functional, cell-based; remark: listed apart in the source
ORF 73 = ORF 73 (Human herpesvirus 8, UniProt O40947); assay: inhibitors of C-LANA binding to LBS DNA, dose response, biochemical, fluorescence polarization, cherry-picked samples (AID 504725); design: species or system Human gammaherpesvirus 8;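 note: fluorescence polarization of a labeled DNA duplex reporting LANA DNA binding; potency is for inhibitors that block LANA binding to the DNA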
Sequence of ORF 73 (O40947 whole entry): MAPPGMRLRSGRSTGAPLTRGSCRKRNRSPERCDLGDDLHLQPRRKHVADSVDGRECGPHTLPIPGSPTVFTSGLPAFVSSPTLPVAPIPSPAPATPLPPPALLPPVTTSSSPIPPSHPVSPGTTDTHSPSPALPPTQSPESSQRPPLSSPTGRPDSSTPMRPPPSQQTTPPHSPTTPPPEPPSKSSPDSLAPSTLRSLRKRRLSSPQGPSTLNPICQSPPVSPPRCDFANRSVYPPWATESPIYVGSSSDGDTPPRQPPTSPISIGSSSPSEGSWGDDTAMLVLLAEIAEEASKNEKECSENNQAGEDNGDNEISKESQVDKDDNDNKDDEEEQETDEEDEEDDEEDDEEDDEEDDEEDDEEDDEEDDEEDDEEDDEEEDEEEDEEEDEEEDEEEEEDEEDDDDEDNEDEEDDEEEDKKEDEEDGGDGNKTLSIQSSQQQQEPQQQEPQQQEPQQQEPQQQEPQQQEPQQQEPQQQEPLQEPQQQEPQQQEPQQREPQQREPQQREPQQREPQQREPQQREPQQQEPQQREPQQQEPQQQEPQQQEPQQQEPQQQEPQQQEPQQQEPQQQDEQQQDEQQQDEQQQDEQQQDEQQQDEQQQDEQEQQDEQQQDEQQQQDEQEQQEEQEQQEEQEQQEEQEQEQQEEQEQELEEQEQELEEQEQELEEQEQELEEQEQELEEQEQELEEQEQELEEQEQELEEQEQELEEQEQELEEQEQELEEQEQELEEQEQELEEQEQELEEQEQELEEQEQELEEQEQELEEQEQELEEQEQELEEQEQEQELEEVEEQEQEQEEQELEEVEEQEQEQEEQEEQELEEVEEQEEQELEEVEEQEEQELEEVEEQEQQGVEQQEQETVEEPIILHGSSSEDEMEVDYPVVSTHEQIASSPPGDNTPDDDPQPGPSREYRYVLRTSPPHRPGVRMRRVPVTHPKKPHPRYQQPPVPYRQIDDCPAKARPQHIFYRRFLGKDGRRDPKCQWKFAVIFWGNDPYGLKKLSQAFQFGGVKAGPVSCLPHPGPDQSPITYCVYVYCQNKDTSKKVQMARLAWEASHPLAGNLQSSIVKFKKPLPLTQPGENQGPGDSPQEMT

[4] = cytotoxicity in HEK-293T cells, dose response, cytotoxicity control for TCR NF-kB inhibitor project, luminescence, T-cell screen hits (AID 489026); type: functional, cell-based;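 note: cells exposed to compound about 14 hours before the viability readout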
[5] = biological target: T1, Corticotropin-releasing factor receptor 2/Corticotropin-releasing factor-binding protein (Homo sapiens, UniProt P24387+Q13324); assay: activators of CRF receptor 2 with binding protein – uHTS hits, confirmation (AID 602473); type: functional; details: read-out: EC50_Mean
T1 sequence (Q13324 whole entry): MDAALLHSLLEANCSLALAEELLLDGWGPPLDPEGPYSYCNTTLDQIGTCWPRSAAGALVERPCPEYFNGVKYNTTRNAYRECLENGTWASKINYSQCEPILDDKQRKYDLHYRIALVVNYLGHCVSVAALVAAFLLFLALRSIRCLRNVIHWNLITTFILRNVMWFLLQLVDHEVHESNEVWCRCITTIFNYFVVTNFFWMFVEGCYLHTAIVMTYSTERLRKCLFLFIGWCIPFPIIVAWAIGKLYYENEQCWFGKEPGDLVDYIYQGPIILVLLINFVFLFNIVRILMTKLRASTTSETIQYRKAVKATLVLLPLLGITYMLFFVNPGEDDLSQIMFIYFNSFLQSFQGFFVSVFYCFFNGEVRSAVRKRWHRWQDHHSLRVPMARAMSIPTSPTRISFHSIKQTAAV
T1 sequence (P24387 whole entry): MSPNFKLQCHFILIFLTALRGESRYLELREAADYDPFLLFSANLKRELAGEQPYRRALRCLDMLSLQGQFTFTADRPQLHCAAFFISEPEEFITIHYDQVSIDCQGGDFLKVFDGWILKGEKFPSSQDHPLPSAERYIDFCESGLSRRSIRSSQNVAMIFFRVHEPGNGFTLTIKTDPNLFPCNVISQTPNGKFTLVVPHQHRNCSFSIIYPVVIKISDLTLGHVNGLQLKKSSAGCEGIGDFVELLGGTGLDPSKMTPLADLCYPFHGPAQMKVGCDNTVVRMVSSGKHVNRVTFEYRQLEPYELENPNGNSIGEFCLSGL

[6] = biological target: T2, Heat shock factor protein 1 (Mus musculus, UniProt P38532); assay: inhibition of MG132-induced HSE-luciferase signal, confirmation, cell-based, NIH3T3, luminescence, dose retest (AID 2382); type: functional;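 note: NIH3T3 fibroblasts with HSF1-driven luciferase reporter stressed by proteasome inhibitor MG132; luminescence from HSF1-driven luciferase expression after 8 hours of MG132 stress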
T2 sequence (P38532 whole entry): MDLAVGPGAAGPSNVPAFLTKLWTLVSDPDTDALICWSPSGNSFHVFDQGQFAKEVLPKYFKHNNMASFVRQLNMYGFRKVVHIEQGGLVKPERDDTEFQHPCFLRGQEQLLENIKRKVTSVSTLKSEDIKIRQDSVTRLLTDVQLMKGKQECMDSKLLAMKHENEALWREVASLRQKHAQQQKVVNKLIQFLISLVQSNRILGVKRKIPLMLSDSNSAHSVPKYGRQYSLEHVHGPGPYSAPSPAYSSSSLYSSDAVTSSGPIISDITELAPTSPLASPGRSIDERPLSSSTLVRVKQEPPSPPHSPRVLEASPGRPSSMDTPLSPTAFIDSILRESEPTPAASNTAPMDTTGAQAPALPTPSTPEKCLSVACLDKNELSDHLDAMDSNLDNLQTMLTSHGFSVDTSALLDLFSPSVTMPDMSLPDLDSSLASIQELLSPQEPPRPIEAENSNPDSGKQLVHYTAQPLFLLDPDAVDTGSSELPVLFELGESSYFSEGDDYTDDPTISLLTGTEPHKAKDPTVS

[7] = biological target: Scavenger receptor class B member 1 (Mus musculus, UniProt Q61009); assay: inhibitors of SR-BI mediated HDL lipid uptake, dose response, ldlA[mSR-BI] cells, fluorescence, cherry pick (AID 493194); type: functional, cell-based;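 note: cellular uptake of fluorescent DiI-labeled HDL measured as cell fluorescence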
Sequence of Scavenger receptor class B member 1 (Q61009 whole entry, the tested form may be a part): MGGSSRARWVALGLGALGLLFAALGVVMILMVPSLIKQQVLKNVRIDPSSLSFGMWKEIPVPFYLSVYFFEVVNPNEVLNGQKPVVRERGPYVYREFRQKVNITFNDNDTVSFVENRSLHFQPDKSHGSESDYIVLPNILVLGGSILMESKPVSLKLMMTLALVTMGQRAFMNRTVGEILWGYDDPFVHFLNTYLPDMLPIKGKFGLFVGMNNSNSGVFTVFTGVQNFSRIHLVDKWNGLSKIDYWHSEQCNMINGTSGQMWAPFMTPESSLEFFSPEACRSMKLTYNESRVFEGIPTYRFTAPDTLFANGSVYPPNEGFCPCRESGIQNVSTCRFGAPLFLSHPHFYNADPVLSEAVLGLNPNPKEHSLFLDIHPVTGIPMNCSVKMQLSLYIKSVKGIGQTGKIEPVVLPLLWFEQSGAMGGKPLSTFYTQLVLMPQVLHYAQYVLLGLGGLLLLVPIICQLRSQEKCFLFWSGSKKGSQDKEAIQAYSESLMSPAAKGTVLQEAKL

[8] = biological target: Envelope glycoprotein gp160 (Human immunodeficiency virus 1, UniProt Q6QLK5); assay: inhibitors of HIV fusion peptide binding, primary screen, biochemical, uHTS, fluorescence dequenching (AID 1986)
Sequence of Envelope glycoprotein gp160 (Q6QLK5 whole entry, the tested form may be a part): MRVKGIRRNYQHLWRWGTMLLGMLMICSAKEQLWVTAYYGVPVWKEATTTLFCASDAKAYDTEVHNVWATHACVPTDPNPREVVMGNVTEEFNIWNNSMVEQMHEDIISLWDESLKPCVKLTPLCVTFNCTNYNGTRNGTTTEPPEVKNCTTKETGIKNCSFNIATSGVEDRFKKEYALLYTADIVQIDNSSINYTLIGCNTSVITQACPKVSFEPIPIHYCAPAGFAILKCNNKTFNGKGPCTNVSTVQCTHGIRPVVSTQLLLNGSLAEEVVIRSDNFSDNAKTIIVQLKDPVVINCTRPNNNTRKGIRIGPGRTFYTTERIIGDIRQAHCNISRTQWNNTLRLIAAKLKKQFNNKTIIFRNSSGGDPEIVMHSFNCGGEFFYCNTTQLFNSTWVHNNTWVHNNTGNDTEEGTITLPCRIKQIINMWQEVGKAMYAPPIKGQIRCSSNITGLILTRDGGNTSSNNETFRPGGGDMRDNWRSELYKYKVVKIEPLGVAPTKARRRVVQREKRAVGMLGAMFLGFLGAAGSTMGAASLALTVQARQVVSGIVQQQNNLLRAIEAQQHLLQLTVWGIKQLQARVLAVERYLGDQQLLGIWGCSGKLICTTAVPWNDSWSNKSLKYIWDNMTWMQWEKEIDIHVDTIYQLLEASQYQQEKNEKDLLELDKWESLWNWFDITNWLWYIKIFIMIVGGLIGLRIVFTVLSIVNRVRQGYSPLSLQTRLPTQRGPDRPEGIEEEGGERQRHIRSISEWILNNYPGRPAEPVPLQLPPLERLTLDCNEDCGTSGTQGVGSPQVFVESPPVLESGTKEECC

Vero = Vero cell cytotoxicity, cytotoxicity control for flavivirus capping enzyme inhibitors (AID 588742); type: functional; details: Chlorocebus sabaeus
Genome polyprotein = Genome polyprotein (dengue virus type 2, UniProt P29990); assay: Dengue-2 NS5 methyltransferase inhibitors, primary screen, biochemical, confirmation dose response (AID 588689); type: functional
Sequence of Genome polyprotein (P29990 2492-3391 limits assumed): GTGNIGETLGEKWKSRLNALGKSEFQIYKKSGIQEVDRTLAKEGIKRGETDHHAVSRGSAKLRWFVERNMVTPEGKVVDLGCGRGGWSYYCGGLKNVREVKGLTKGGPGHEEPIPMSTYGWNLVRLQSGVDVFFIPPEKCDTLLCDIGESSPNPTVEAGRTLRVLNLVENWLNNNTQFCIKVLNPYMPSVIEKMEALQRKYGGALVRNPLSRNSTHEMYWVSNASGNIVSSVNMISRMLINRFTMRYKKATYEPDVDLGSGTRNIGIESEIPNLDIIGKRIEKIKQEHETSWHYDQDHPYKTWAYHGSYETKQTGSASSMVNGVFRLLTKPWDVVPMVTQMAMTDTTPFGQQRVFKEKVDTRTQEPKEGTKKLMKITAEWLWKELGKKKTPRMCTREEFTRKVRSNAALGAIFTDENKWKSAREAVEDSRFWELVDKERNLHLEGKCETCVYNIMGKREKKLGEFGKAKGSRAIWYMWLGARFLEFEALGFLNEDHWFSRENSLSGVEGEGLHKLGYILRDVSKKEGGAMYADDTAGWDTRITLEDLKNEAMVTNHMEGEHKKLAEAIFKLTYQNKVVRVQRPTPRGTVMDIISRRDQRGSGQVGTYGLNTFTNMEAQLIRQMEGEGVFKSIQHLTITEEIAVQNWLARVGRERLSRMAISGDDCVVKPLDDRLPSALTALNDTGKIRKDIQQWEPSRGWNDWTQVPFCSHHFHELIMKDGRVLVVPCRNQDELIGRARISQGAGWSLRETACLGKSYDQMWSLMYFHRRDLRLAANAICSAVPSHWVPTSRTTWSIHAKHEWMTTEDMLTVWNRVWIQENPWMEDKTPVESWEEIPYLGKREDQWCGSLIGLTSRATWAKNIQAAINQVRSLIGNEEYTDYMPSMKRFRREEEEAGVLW

[9] = biological target: T3, Carboxy-terminal domain RNA polymerase II polypeptide A small phosphatase 1 (Homo sapiens, UniProt Q9GZU7); assay: inhibitors of CTDSP1, concentration-response testing, biochemical assay, absorbance-based, actives from ultra-high-throughput screening (AID 540297); type: functional
T3 sequence (Q9GZU7 whole entry): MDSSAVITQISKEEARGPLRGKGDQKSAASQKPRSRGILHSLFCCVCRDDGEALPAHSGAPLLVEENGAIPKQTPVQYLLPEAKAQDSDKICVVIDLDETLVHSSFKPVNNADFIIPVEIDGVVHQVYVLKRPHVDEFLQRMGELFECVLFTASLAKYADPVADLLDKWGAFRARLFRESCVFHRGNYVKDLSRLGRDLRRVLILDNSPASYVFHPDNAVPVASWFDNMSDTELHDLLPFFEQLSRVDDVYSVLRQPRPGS

[10] = biological target: T4, Low molecular weight phosphotyrosine protein phosphatase (Homo sapiens, UniProt P24666); type: functional; details: read-out: IC50_Mean
T4 sequence (P24666 whole entry): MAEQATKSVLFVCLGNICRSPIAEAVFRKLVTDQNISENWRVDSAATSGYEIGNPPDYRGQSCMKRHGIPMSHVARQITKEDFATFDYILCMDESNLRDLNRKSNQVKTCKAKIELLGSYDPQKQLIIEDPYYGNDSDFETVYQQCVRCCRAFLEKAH

[11] = biological target: T4, Low molecular weight phosphotyrosine protein phosphatase; type: functional; details: read-out: IC50_Mean; remark: listed apart in the source
[12] = biological target: T5, Tyrosine-protein phosphatase non-receptor type 22 (Homo sapiens, UniProt Q9Y2R2); assay: LYP phosphatase inhibition for selectivity, dose response, selectivity assay for LMPTP inhibitor project, biochemical, fluorescence, LYP catalytic domain (AID 652006); type: functional; details: read-out: IC50_Mean
T5 sequence (Q9Y2R2 whole entry): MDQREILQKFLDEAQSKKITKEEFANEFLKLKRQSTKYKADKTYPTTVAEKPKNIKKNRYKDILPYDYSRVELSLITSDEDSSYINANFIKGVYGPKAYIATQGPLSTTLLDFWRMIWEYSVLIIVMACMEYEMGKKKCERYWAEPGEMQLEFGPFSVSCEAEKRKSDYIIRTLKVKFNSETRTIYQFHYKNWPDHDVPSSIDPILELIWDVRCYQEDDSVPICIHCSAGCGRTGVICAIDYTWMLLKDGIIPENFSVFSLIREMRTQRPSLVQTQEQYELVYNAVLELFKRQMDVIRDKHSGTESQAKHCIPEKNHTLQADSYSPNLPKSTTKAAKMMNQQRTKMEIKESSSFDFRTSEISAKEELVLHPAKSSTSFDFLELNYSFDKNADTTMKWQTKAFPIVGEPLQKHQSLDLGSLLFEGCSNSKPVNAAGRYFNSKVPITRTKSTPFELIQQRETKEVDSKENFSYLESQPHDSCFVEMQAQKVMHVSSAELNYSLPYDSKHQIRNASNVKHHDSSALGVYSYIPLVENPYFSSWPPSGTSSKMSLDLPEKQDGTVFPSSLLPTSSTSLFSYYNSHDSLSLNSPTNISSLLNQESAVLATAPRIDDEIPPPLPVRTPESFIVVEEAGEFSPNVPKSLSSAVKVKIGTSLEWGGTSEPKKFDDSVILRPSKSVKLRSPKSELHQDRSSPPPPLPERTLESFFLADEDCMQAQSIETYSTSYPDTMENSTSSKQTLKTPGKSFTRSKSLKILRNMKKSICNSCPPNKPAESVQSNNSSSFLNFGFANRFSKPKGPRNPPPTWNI

Which results are given for CCc1ccc(NC(=O)c2ccc3nc(N)sc3c2)cc1?
CC50 [1]: 54 µM (active); AC50 (HeLa): 47.4 µM (active)

Which EC50 (cells [2]) does the source give for O=C(OCCN1C(=O)c2cccc3c(N4CCOCC4)ccc(c23)C1=O)c1ccc(Cl)cc1 here?
Its EC50 is > 350 µM (not active).

And the EC50 (cells [3])?
The EC50 was > 350 µM (not active).

And the AC50 (ORF 73)?
The AC50 was 29.3 µM (active).

And the IC50 [4]?
Its IC50 is > 80 µM (inactive).

And the EC50 [5]?
The EC50 was 5.89 µM (active).

For CCOc1ccccc1/C=C/c1onc(C)c1S(=O)(=O)N1CCC(C(=O)NC(C)(C)C)CC1, which EC50 [6] is on record?
The EC50 was > 195 µM (not active).

What about the AC50 [7] of the same compound?
The AC50 was 0.05 µM (active).

With Cc1c(CCC(=O)O)c(=O)oc2c(C)c3occ(-c4ccc(Cl)cc4)c3cc12 as the compound, how does the IC50 [8] read?
Its IC50 is 15.1 µM (active).

And the CC50 (Vero)?
The CC50 was > 40 µM (active).

What about the IC50 (Genome polyprotein) of the same compound?
The IC50 was 42.2 µM (active).

And the IC50 [9]?
The IC50 was 4.89 µM (active).

What about the IC50 [10] of the same compound?
The IC50 was 19.1 µM (active).

What about the IC50 [11] of the same compound?
The IC50 was 8.61 µM (active).

And the IC50 [12]?
The IC50 was 22.4 µM (inactive).
